{"source": "patent US11571420B2", "about": "(priority 2018, dated 2023)", "biological_target": "hADORA1/CHO (hA1 expressing) cells (Homo sapiens (Human), UniProt P30542)", "sequence (P30542 whole entry)": "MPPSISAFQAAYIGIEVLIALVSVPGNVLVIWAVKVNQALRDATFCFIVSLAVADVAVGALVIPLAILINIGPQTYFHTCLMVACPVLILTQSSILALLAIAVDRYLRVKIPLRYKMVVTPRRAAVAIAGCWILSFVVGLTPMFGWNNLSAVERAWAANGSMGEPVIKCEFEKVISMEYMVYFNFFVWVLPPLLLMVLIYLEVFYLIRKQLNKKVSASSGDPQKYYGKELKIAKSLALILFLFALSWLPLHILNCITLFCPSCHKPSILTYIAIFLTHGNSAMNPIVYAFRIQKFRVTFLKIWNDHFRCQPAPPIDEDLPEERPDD", "assay": "FLIPR calcium inhibition assay in hADORA1/CHO (hA1 expressing) cells, 10 M adenosine", "type": "cell-based", "conditions": "read-out: cAMP & FLIPR IC50 (nM) hA1", "procedure": "hADORA1/CHO (hA1 expressing) cells (Genscript) were plated at 1×10^4 cells/well into 384-well polystyrene plates one day before starting the experiment. On the day of experiment, the supernatant was discard and replaced with 40 μL of dye (FLIPR calcium 5 Assay Kit) per well and the plates were incubated for 60 mins at 37° C. plus 5% CO2. Then testing compounds were added at different concentrations for FLIPR™ inhibition assay. After a 400 s incubation with compound, […] adenosine was added into the cells, and the signal was captured by FLIPR."}
{"smiles": "Cc1cnc2ccc(-c3nc(C(=O)NCC4CCCCN4C)c(N)nc3-c3ncco3)cn12", "note": "(single isomer, unassigned; isomer 2) [Example 125, 3-amino-6-(3-methylimidazo[1,2-a]pyridin-6-yl)-N-((1-methylpiperidin-2-yl)methyl)-5-(oxazol-2-yl)pyrazine-2-carboxamide (isomer 2)]", "values": [{"measurement": "IC50", "value": 10000, "unit": "nM"}]}
